In ChEMBL document CHEMBL1287719, “N⁶-Alkyladenosines: Synthesis and evaluation of in vitro anticancer activity” (Bioorg Med Chem, 2010):
Active and inactive are the calls of the source. No cut-off for these calls is given here.

Assays:
T-24 [1] = experiment: Cytotoxicity against human T24 cells at 10 uM after 72 hrs by MTT assay; type: functional, cell-based
J82 = experiment: Cytotoxicity against human J82 cells at 10 uM after 72 hrs by MTT assay; type: functional, cell-based
Caco-2 = experiment: Cytotoxicity against human Caco-2 cells at 10 uM after 72 hrs by MTT assay; type: functional, cell-based
MDA-MB-231 = experiment: Cytotoxicity against human MDA-MB-231 cells at 10 uM after 72 hrs by MTT assay; type: functional, cell-based
T-24 [2] = experiment: Cytotoxicity against human T24 cells assessed as inhibition of clones formation at 10 uM after 1 week by clonogenic assay; type: functional, cell-based
T-24 [3] = experiment: Growth inhibition of human T24 cells assessed as reduction of cell count after trypsinization at 10 uM after 72 hrs by MTT assay; type: functional, cell-based
T-24 [4] = experiment: Inhibition of human T24 cells invasion on Matrigel after 24 hrs; type: functional, cell-based
[5] = molecular target: Matrix metalloproteinase-9 (Homo sapiens) (UniProt P14780); experiment: Induction of MMP9 activity in human T24 cells after 1 hr by zymography; type: cell-based; conditions: T-24
T-24 [6] = experiment: Inhibition of human T24 cell migration by wound healing assay; type: functional, cell-based

Chain of Matrix metalloproteinase-9 (Homo sapiens) (P14780 whole entry): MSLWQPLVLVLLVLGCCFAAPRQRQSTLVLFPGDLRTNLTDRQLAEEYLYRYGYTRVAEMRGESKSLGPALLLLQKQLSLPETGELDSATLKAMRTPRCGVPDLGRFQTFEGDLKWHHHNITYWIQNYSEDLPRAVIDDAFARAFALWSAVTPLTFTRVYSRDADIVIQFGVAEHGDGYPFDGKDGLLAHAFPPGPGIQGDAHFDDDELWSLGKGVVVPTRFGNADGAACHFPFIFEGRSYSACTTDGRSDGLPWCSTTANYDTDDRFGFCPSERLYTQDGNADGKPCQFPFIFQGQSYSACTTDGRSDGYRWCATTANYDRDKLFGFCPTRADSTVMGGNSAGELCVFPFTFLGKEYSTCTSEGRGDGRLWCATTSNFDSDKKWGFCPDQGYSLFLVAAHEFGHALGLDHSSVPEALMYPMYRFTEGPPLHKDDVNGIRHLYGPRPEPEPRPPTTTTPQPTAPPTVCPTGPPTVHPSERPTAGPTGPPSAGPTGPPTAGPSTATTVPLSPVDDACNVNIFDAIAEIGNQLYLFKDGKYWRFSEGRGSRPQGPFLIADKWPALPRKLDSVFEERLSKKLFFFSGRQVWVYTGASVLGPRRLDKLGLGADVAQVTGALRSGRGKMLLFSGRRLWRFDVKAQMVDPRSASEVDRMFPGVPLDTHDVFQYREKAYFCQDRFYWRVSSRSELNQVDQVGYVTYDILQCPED

`OC[C@H]1O[C@@H](n2cnc3c(NCC4CCC4)ncnc32)[C@H](O)[C@@H]1O` was tested, and the Activity (T-24 [1]) was “Active”, the Activity (J82) was “Active” and the Activity (Caco-2) was “Active”. For the same compound, the Activity (MDA-MB-231) was “Active”, the Activity (T-24 [2]) was “Active” and the Activity (T-24 [3]) was “Active”. For the same compound, the inhibition (T-24 [4]) was “inactive”, the Activity [5] was “inactive” and the Activity (T-24 [6]) was “inactive”.

In the case of `OC[C@H]1O[C@@H](n2cnc3c(NCc4ccccc4)ncnc32)[C@H](O)[C@@H]1O`, the Activity (T-24 [1]) is reported as “Active”, the Activity (J82) is reported as “Active” and the Activity (Caco-2) is reported as “Active”. For the same compound, the Activity (MDA-MB-231) was “Active”, the Activity (T-24 [2]) was “Active” and the Activity (T-24 [3]) was “Active”. For the same compound, the inhibition (T-24 [4]) was “inactive”, the Activity [5] was “inactive” and the Activity (T-24 [6]) was “inactive”.

In the case of `CC(C)CCNc1ncnc2c1ncn2[C@@H]1O[C@H](CO)[C@@H](O)[C@H]1O`, the Activity (T-24 [1]) is reported as “Active”, the Activity (J82) is reported as “Active” and the Activity (Caco-2) is reported as “Active”. The Activity (MDA-MB-231) was “Active”, the Activity (T-24 [2]) was “Active” and the Activity (T-24 [3]) was “Active”. For the same compound, the inhibition (T-24 [4]) was “inactive”, the Activity [5] was “inactive” and the Activity (T-24 [6]) was “inactive”.

In the case of `CCCCNc1ncnc2c1ncn2[C@@H]1O[C@H](CO)[C@@H](O)[C@H]1O`, the Activity (T-24 [1]) is reported as “Active”, the Activity (J82) is reported as “Active” and the Activity (Caco-2) is reported as “Active”. For the same compound, the Activity (MDA-MB-231) was “Active”, the Activity (T-24 [2]) was “Active” and the Activity (T-24 [3]) was “Active”. The inhibition (T-24 [4]) was “inactive”, the Activity [5] was “inactive” and the Activity (T-24 [6]) was “inactive”.

`C=CCNc1ncnc2c1ncn2[C@@H]1O[C@H](CO)[C@@H](O)[C@H]1O` was tested, and the Activity (T-24 [1]) was “Active”, the Activity (J82) was “Active” and the Activity (Caco-2) was “Active”. The Activity (MDA-MB-231) was “Active”, the Activity (T-24 [2]) was “Active” and the Activity (T-24 [3]) was “Active”. For the same compound, the inhibition (T-24 [4]) was “inactive”, the Activity [5] was “inactive” and the Activity (T-24 [6]) was “inactive”.
